PubChem BioAssay AID1918994 (Molecular Pharmacology Branch, DTP, NCI, 2023)
pIC50: −log10 of the molar value.

Tested on: 292921-168-R-J2-PDC complex spheroid growth
Experiment: Anticancer human tumor 292921-168-R-J2-PDC patient-derived pancreatic carcinoma cell line growth inhibition [AhR]
Conditions: for pIC50: curve of first compound; for viability, T/C: stronger effect = lower value
Procedure, shortened: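 Spheroids combined tumor cells with HUVEC endothelial cells and human MSCs as stroma. AhR antagonists were paired with standard or investigational drugs, each dosed in half-log steps down from near clinical Cmax, or from 10 microM where Cmax was unknown.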

[1] = second compound 0.1 µM, first compound 0.0316 µM
[2] = second compound 0.1 µM, first compound 0.1 µM
[3] = second compound 0.1 µM, first compound 0.316 µM
[4] = second compound 0.1 µM, first compound 1 µM
[5] = second compound 0.1 µM, first compound 3.16 µM
[6] = second compound 0.1 µM, first compound 10 µM
[7] = second compound 0.316 µM, first compound 0.0316 µM
[8] = second compound 0.316 µM, first compound 0.1 µM
[9] = second compound 0.316 µM, first compound 0.316 µM
[10] = second compound 0.316 µM, first compound 1 µM
[11] = second compound 0.316 µM, first compound 3.16 µM
[12] = second compound 0.316 µM, first compound 10 µM
[13] = second compound 1 µM, first compound 0.0316 µM
[14] = second compound 1 µM, first compound 0.1 µM
[15] = second compound 1 µM, first compound 0.316 µM
[16] = second compound 1 µM, first compound 1 µM
[17] = second compound 1 µM, first compound 3.16 µM
[18] = second compound 1 µM, first compound 10 µM
[19] = second compound 3.16 µM, first compound 0.0316 µM
[20] = second compound 3.16 µM, first compound 0.1 µM
[21] = second compound 3.16 µM, first compound 0.316 µM
[22] = second compound 3.16 µM, first compound 1 µM
[23] = second compound 3.16 µM, first compound 3.16 µM
[24] = second compound 3.16 µM, first compound 10 µM
[25] = second compound 10 µM, first compound 0.0316 µM
[26] = second compound 10 µM, first compound 0.1 µM
[27] = second compound 10 µM, first compound 0.316 µM
[28] = second compound 10 µM, first compound 1 µM
[29] = second compound 10 µM, first compound 3.16 µM
[30] = second compound 10 µM, first compound 10 µM
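Note: spheroids exposed to compounds for seven days after three days of growth.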

What does the source list for `CC(C)CC(NC(=O)C(Cc1ccccc1)NC(=O)c1cnccn1)B(O)O` (stereo not given) + CC(CO)NC(=O)c1cc(-c2ccc(Cl)cc2)nn(-c2cnn(C)c2)c1=O?
pIC50 (second compound 0.1 µM): 8.21; pIC50 (second compound 0.316 µM): 8.27; pIC50 (second compound 1 µM): 8.22; pIC50 (second compound 3.16 µM): 8.28; pIC50 (second compound 10 µM): 8.35; viability, T/C (second compound 0.1 µM, first compound 0.000949 µM): 105%; viability, T/C (second compound 0.1 µM, first compound 0.003 µM): 107%; viability, T/C (second compound 0.1 µM, first compound 0.00949 µM): 15.2%; viability, T/C (second compound 0.1 µM, first compound 0.03 µM): 2.8%; viability, T/C (second compound 0.1 µM, first compound 0.0949 µM): 1.2%; viability, T/C (second compound 0.1 µM, first compound 0.3 µM): 0.49%; viability, T/C (second compound 0.316 µM, first compound 0.000949 µM): 109%; viability, T/C (second compound 0.316 µM, first compound 0.003 µM): 90.4%; viability, T/C (second compound 0.316 µM, first compound 0.00949 µM): 11.8%; viability, T/C (second compound 0.316 µM, first compound 0.03 µM): 1.8%; viability, T/C (second compound 0.316 µM, first compound 0.0949 µM): 0.5%; viability, T/C (second compound 0.316 µM, first compound 0.3 µM): 0.59%; viability, T/C (second compound 1 µM, first compound 0.000949 µM): 101%; viability, T/C (second compound 1 µM, first compound 0.003 µM): 102%; viability, T/C (second compound 1 µM, first compound 0.00949 µM): 15.8%; viability, T/C (second compound 1 µM, first compound 0.03 µM): 2.98%; viability, T/C (second compound 1 µM, first compound 0.0949 µM): 1.25%; viability, T/C (second compound 1 µM, first compound 0.3 µM): 1.42%; viability, T/C (second compound 3.16 µM, first compound 0.000949 µM): 85.8%; viability, T/C (second compound 3.16 µM, first compound 0.003 µM): 85.6%; viability, T/C (second compound 3.16 µM, first compound 0.00949 µM): 13.2%; viability, T/C (second compound 3.16 µM, first compound 0.03 µM): 2.3%; viability, T/C (second compound 3.16 µM, first compound 0.0949 µM): 2.01%; viability, T/C (second compound 3.16 µM, first compound 0.3 µM): 1.89%; viability, T/C (second compound 10 µM, first compound 0.000949 µM): 77.6%; viability, T/C (second compound 10 µM, first compound 0.003 µM): 70%; viability, T/C (second compound 10 µM, first compound 0.00949 µM): 11%; viability, T/C (second compound 10 µM, first compound 0.03 µM): 1.4%; viability, T/C (second compound 10 µM, first compound 0.0949 µM): 2.28%; viability, T/C (second compound 10 µM, first compound 0.3 µM): 2.01%

How did the pIC50 (second compound 0.1 µM) turn out when `COc1cc(Nc2ncc3c(n2)-c2ccc(Cl)cc2C(c2c(F)cccc2OC)=NC3)ccc1C(=O)O` + CC(CO)NC(=O)c1cc(-c2ccc(Cl)cc2)nn(-c2cnn(C)c2)c1=O was run?
The pIC50 was greater than 7.50.

And the pIC50 (second compound 0.316 µM)?
Its pIC50 is greater than 7.50.

And the pIC50 (second compound 1 µM)?
Its pIC50 is greater than 7.50.

And the pIC50 (second compound 3.16 µM)?
Its pIC50 is greater than 7.50.

What about the pIC50 (second compound 10 µM) of the same molecule?
Its pIC50 is greater than 7.50.

What about the viability, T/C [1] of the same molecule?
The viability, T/C was 51%.

And the viability, T/C [2]?
The viability, T/C was 41.9%.

What about the viability, T/C [3] of the same molecule?
The viability, T/C was 44.8%.

And the viability, T/C [4]?
The viability, T/C was 40.1%.

And the viability, T/C [5]?
The viability, T/C was 40.7%.

What about the viability, T/C [6] of the same molecule?
Its viability, T/C is 31.4%.

What about the viability, T/C [7] of the same molecule?
The viability, T/C was 50.8%.

What about the viability, T/C [8] of the same molecule?
Its viability, T/C is 40.1%.

What about the viability, T/C [9] of the same molecule?
The viability, T/C was 44.1%.

What about the viability, T/C [10] of the same molecule?
Its viability, T/C is 40.9%.

What about the viability, T/C [11] of the same molecule?
The viability, T/C was 34.3%.

What about the viability, T/C [12] of the same molecule?
The viability, T/C was 33.3%.

What about the viability, T/C [13] of the same molecule?
The viability, T/C was 52.5%.

And the viability, T/C [14]?
The viability, T/C was 40.3%.

And the viability, T/C [15]?
The viability, T/C was 39.3%.

And the viability, T/C [16]?
The viability, T/C was 47.9%.

What about the viability, T/C [17] of the same molecule?
The viability, T/C was 37.3%.

What about the viability, T/C [18] of the same molecule?
The viability, T/C was 30%.

And the viability, T/C [19]?
The viability, T/C was 45.3%.

What about the viability, T/C [20] of the same molecule?
Its viability, T/C is 36.2%.

And the viability, T/C [21]?
The viability, T/C was 44.3%.

And the viability, T/C [22]?
The viability, T/C was 42%.

What about the viability, T/C [23] of the same molecule?
Its viability, T/C is 36.8%.

What about the viability, T/C [24] of the same molecule?
The viability, T/C was 28.4%.

What about the viability, T/C [25] of the same molecule?
Its viability, T/C is 38.5%.

And the viability, T/C [26]?
The viability, T/C was 33.4%.

What about the viability, T/C [27] of the same molecule?
The viability, T/C was 37.3%.

What about the viability, T/C [28] of the same molecule?
Its viability, T/C is 38.8%.

And the viability, T/C [29]?
The viability, T/C was 32.6%.

And the viability, T/C [30]?
The viability, T/C was 26.4%.

What does the source list for `NS(=O)(=O)OCC1CC(n2ccc3c(NC4CCc5ccccc54)ncnc32)CC1O` (stereo not given) + CC(CO)NC(=O)c1cc(-c2ccc(Cl)cc2)nn(-c2cnn(C)c2)c1=O?
pIC50 (second compound 0.1 µM): 6.67; pIC50 (second compound 0.316 µM): 6.66; pIC50 (second compound 1 µM): 6.65; pIC50 (second compound 3.16 µM): 6.68; pIC50 (second compound 10 µM): 6.77; viability, T/C [1]: 117%; viability, T/C [2]: 98.1%; viability, T/C [3]: 24.8%; viability, T/C [4]: 5.49%; viability, T/C [5]: 4.31%; viability, T/C [6]: 5.11%; viability, T/C [7]: 125%; viability, T/C [8]: 98%; viability, T/C [9]: 28.5%; viability, T/C [10]: 6.03%; viability, T/C [11]: 3.81%; viability, T/C [12]: 4.31%; viability, T/C [13]: 116%; viability, T/C [14]: 101%; viability, T/C [15]: 27.8%; viability, T/C [16]: 5.81%; viability, T/C [17]: 4.08%; viability, T/C [18]: 4.94%; viability, T/C [19]: 105%; viability, T/C [20]: 93.5%; viability, T/C [21]: 25.2%; viability, T/C [22]: 5.74%; viability, T/C [23]: 4%; viability, T/C [24]: 5.65%; viability, T/C [25]: 89.6%; viability, T/C [26]: 73.1%; viability, T/C [27]: 22.2%; viability, T/C [28]: 6.76%; viability, T/C [29]: 3.96%; viability, T/C [30]: 5.6%

How did the pIC50 (second compound 0.1 µM) turn out when `O=C(C=Cc1cccc(S(=O)(=O)Nc2ccccc2)c1)NO` + CC(CO)NC(=O)c1cc(-c2ccc(Cl)cc2)nn(-c2cnn(C)c2)c1=O was run?
Its pIC50 is 6.55.

What about the pIC50 (second compound 0.316 µM) of the same molecule?
The pIC50 was 6.49.

And the pIC50 (second compound 1 µM)?
The pIC50 was 6.58.

What about the pIC50 (second compound 3.16 µM) of the same molecule?
Its pIC50 is 6.84.

And the pIC50 (second compound 10 µM)?
The pIC50 was greater than 7.50.

And the viability, T/C [1]?
Its viability, T/C is 72.2%.

What about the viability, T/C [2] of the same molecule?
The viability, T/C was 56.7%.

And the viability, T/C [3]?
Its viability, T/C is 48.6%.

And the viability, T/C [4]?
The viability, T/C was 35.1%.

What about the viability, T/C [5] of the same molecule?
The viability, T/C was 28.5%.

And the viability, T/C [6]?
The viability, T/C was 1.96%.

And the viability, T/C [7]?
Its viability, T/C is 74%.

And the viability, T/C [8]?
Its viability, T/C is 63.3%.

What about the viability, T/C [9] of the same molecule?
The viability, T/C was 46.1%.

What about the viability, T/C [10] of the same molecule?
The viability, T/C was 36.3%.

And the viability, T/C [11]?
The viability, T/C was 30.7%.

And the viability, T/C [12]?
The viability, T/C was 2.62%.

What about the viability, T/C [13] of the same molecule?
The viability, T/C was 67.8%.

What about the viability, T/C [14] of the same molecule?
The viability, T/C was 57.3%.

What about the viability, T/C [15] of the same molecule?
The viability, T/C was 46.5%.

What about the viability, T/C [16] of the same molecule?
The viability, T/C was 35.4%.

What about the viability, T/C [17] of the same molecule?
Its viability, T/C is 28.7%.

What about the viability, T/C [18] of the same molecule?
Its viability, T/C is 3.31%.

What about the viability, T/C [19] of the same molecule?
Its viability, T/C is 64%.

What about the viability, T/C [20] of the same molecule?
Its viability, T/C is 52%.

What about the viability, T/C [21] of the same molecule?
Its viability, T/C is 41.9%.

What about the viability, T/C [22] of the same molecule?
Its viability, T/C is 31%.

What about the viability, T/C [23] of the same molecule?
The viability, T/C was 22.5%.

What about the viability, T/C [24] of the same molecule?
The viability, T/C was 2.61%.

What about the viability, T/C [25] of the same molecule?
The viability, T/C was 50.4%.

What about the viability, T/C [26] of the same molecule?
Its viability, T/C is 43.6%.

And the viability, T/C [27]?
The viability, T/C was 39.1%.

What about the viability, T/C [28] of the same molecule?
The viability, T/C was 29.1%.

What about the viability, T/C [29] of the same molecule?
Its viability, T/C is 20%.

And the viability, T/C [30]?
Its viability, T/C is 1.62%.
